Data from a melting point compilation (Tetko et al.; mined from patent text by program, amines drawn as free bases though some values may be those of a salt).
Residues, ends and D or L forms follow the SMILES beside them. *: point of attachment. Cbz = O=C(OCc1ccccc1)*

| Compound | melting point |
| --- | --- |
| O=C1c2c(Br)cccc2S(=O)(=O)N1CCl | 157 to 159 °C |
| CCNn1cc(C(=O)O)c(=O)c2cc3c(cc21)OCO3 | 242 °C |
| CC1=CCC(C(=O)O)CC1 (stereo unspecified) | 95 °C |
| C(=C\c1cc(/C=C/c2c[nH]c3ccccc23)n[nH]1)/c1cccc(OCc2ccccn2)c1 | 198 to 201 °C |
| OC1CSC(Oc2ccncc2)C(O)C1O (stereo unspecified) | 165 to 168 °C |
| COC(=O)CN1C(=S)CN=C(c2ccccc2)c2cc(Cl)ccc21 | 180 to 182 °C |
| NS(=O)(=O)c1cc2c(s1)S(=O)(=O)CC(=S)N2 | 219 to 221 °C |
| Oc1nc2c([nH]1)CCCCC2 | 272 °C |
| CSc1ccc(NC(=N)c2ccccc2)cc1 | 129 to 131 °C |
| COc1cc(COc2ccc(N)nn2)cc(OC)c1OC | 142 to 144 °C |
| O=[N+]([O-])c1c(Br)nn(CCO)c1NCc1ccccc1 | 133 to 135 °C |
| O=C(O)c1ncn2c1[C@@H]1CCN1C(=O)c1c-2ccc(F)c1Cl | 225 to 226 °C |
| COc1cc(C(C)C)ccc1C1COc2c(C)c(C)cc(C)c21 (stereo unspecified) | 102 to 103 °C |
| Nc1c2c(nc3cccc(Cl)c13)CCCC2 | 144 to 145 °C |
| CC1=C2C(=C(c3ccccc3Cl)N=CC(=O)N2C)NO1 | 136 to 138 °C |
| Cc1coc2c1C(=O)CC(c1ccco1)C2 (stereo unspecified) | 60 to 61 °C |
| COc1ccc2cc(C3(O)CN4CCC3CC4)ccc2c1 (racemic) | > 330 °C |
| C[C@](Cc1c[nH]c2ccccc12)(NC(=O)O)C(=O)NCCC1CCCCC1 | 79 to 81 °C |
| COc1cc(N)c(Cl)cc1C(=O)NCC1CCN(CCCS(=O)(=O)Cc2ccc(Cl)cc2)CC1 | 175 to 177 °C |
| Oc1cn(-c2c(Cl)cc(C(F)(F)F)cc2Cl)nc1C(F)(F)F | 186 to 188 °C |

| Compound | melting point |
| --- | --- |
| Cc1nnc(COc2ccc(Oc3ccccc3)cc2)o1 | 78 to 79 °C |
| Cc1ccc2c(c1)C=Cc1cc(C)ccc1C2c1cn(Cc2ccc(C(=O)N[C@@H](CC(=O)O)C(=O)O)o2)c(=O)[nH]c1=S | 195 °C |
| Cc1ccc(-n2c(-c3cc(-c4ccc(Cl)cc4)c(N4CCOCC4)s3)nc3ccccc3c2=O)cc1 | 224 to 226 °C |
| CNc1ncn(-c2c(Cl)cccc2Cl)c(=O)n1 | 270 °C |
| COC(=O)C(Cc1c[nH]c2ccccc12)NC(=O)C(CCC(N)=O)NC(=O)OCc1ccccc1 (stereo not drawn) (Cbz-Gln-Trp-OMe; configuration not given here) | 197 to 198 °C |
| CC(C)C/C=C\CCCCCCCCCC(=O)O | 12.5 °C |
| O=C(O)c1cn(C2CC2)c2cc(N3CCC4(C3)OCCO4)c(F)cc2c1=O | 229 to 230 °C |
| COc1ccc(CNC(=O)c2cc3c(=O)n(CCOc4ccc(F)cc4)c(=O)n(C)c3s2)cc1 | 170 to 171 °C |
| CCC(C(O)c1ccc(Cl)cc1)n1ncn(-c2ccc(N3CCN(c4ccc(O)cc4)CC3)cc2)c1=O (stereo unspecified) | 270 °C |
| COc1cccc([C@H]2O[C@H](CC(=O)Nc3cc(CCCCC(=O)O)ccc3F)C(=O)N(CC(C)(C)CO)c3ccc(Cl)cc32)c1OC | 115 to 118 °C |
| Cc1ccc(C(=O)NCc2cc(C(C)C)no2)cc1 | 107 to 116 °C |
| COc1ccc(-c2cc3ccccc3[nH]2)cc1NC(=S)Nc1cccc(CC(=O)O)c1 | 174 to 175 °C |
| N#CC1(c2ccccc2)CCC2(CC1)OCCO2 | 108 to 110 °C |
| NC(Cc1noc2ccccc12)=NO | 160 to 162 °C |
| CCN1C(=O)C(C)(C)C(=O)N(C)c2cc(CN(CCn3c(=O)ccc4ccccc43)Cc3ccc(C)nc3C)ccc21 | 159 to 160 °C |
| CCCC(=O)C(=CNc1ccccc1OC)C(=O)OCC | 74 to 76 °C |
| Cc1nn(C)c2c(O)nc(C(C)C)nc12 | 264 to 266 °C |
| CCCn1nnn(-c2cc(C)c(Cl)cc2Cl)c1=O | 47 to 48 °C |
| CC(C)N(CCC(CCN1CCCC1)(C(N)=O)c1ccccc1)C(C)C (stereo unspecified) | 79 to 80 °C |
| O=C(NCCO)/C(=C/c1ccc(C2CC2)cc1)NC(=O)c1ccc(OCCc2ccc3c(c2)OCO3)cc1 | 113 to 115 °C |

| Compound | melting point |
| --- | --- |
| COc1ccc(Cc2cc(C3CCN(C(=O)c4ccccc4)CC3)nc(N)n2)cc1 | 170 to 171 °C |
| CCCN(CCC)C(=O)C(CO)Nc1nc(-c2ccccc2)nc(C)c1C (stereo unspecified) | 132 to 133 °C |
| CC(C)OC(=O)Nc1cc(C2CC2)on1 | 64.5 to 65.5 °C |
| CN(C)c1ccc2c(n1)C(c1ccccc1Cl)=NCc1nncn1-2 | 240 to 242 °C |
| Cc1nc(-c2c(C)c(C#N)c3nc(C4CC4)oc3c2N2CC[C@H](N(C)C)C2)cs1 | 167 to 168 °C |
| CN1C(=O)CC[C@]2(C)c3ccc(-c4ccc(NC(=O)C(C)(C)C)cc4)cc3CC[C@@H]12 | > 265 °C |
| CCn1ncc2c3noc(-c4ccccc4C)c3cnc21 | 168 to 170 °C |
| CNC=C1C(=S)C(C)(C)OC1(C)C | 115 to 117 °C |
| O=C1Nc2ccncc2Oc2ccccc21 | 253 to 254 °C |
| CSC(C)(C)c1nnc(N)s1 | 195 to 197 °C |
| COc1ccc(N2CCN(c3ccc(NC(=O)Oc4ccccc4)cn3)CC2)cc1 | 197 to 198 °C |
| Cc1cccc(-c2nc3cnccc3[nH]2)c1 | 202 to 204 °C |
| S=c1cc(-c2ccccc2)c(S)n[nH]1 | 146 to 148 °C |
| CC(C)Nc1nc2c(Br)c(Cl)c(Cl)cc2n1[C@H]1O[C@@H](CO)[C@H](O)[C@@H]1O | 221 to 222 °C |
| CC1CC(C)OP(=O)(Cc2ccc([N+](=O)[O-])cc2)O1 (stereo unspecified) | 152 to 153 °C |
| O=c1c2ccccc2nnn1OS(=O)(=O)c1ccccc1 | 132 to 134 °C |
| CCN1CCN(c2cccc3ccc(NC(=O)c4ccc(Cl)cc4)cc23)CC1 | 173 to 174 °C |
| Fc1ccc(NC(=S)Nc2nc3ccc(OC(F)(F)F)cc3s2)cc1 | 207 °C |
| CC(C)(C)c1ccc(OCC(N)CO)cc1 (stereo unspecified) | 102 °C |
| CCCc1c(OCCCCCCc2cc(OC)c(OC)cc2F)ccc(C(=O)O)c1O | 127 to 130 °C |

The next lines start with the values.

| melting point | Compound |
| --- | --- |
| 179 to 180 °C | Cc1oc(-c2ccccc2)nc1COc1ccc2cc(CC3SC(=O)NC3=O)oc2c1 (stereo unspecified) |
| 336 to 338 °C | COc1cc2c(=O)c(-c3ccc(O)cc3)coc2cc1O |
| 143 to 150 °C | CC(C(=O)O)c1ccc(CC2CCCCC2=NO)cc1 (stereo unspecified) |
| > 200 °C | O=C(c1ccc(-c2cnc3c(c2)N(Cc2cc(Cl)ccc2Cl)C(=O)CN3)cc1)N1CCC(N2CCCC2)CC1 |
| 175 °C | COc1ncc(NC(N)=S)c(OC)n1 |
| 119 to 121 °C | CC(C)(C)NC(=O)[C@@H]1C[C@H](Sc2ccccc2)CN1C(=O)OC(C)(C)C |
| 150 °C | Cn1nc(C(C)(C)C)cc1O |
| 117 to 118 °C | O=C(c1ccc(Sc2ccccc2)cc1)c1ccc(O)cc1O |
| 81 to 83 °C | COc1cc(Sc2ccncc2)cc2ccoc12 |
| 149 to 151 °C | O=C(NC1CSc2ccccc2NC1=O)OCc1ccccc1 (stereo unspecified) |
| 266 to 268 °C | COc1c(O)c(OC)c2c(=O)cc(-c3ccc(O)cc3)oc2c1OC |
| 165 to 167 °C | COc1ccc(-c2c(Cl)c(COc3ccccn3)nc3sc4c(c23)CCN(Cc2ccccc2)C4)cc1OC |
| 204 to 205 °C | O=C(NC1CCOCC1)c1ccc2nonc2c1 |
| 193 to 195 °C | CN1CCC(NC(=O)Nc2ccccc2CCc2cc(C(C)(C)C)c(O)c(C(C)(C)C)c2)CC1 |
| 80 to 81 °C | Oc1cc2c(cc1Sc1ccccc1)OCC2 |
| 199 to 201 °C | COc1cc(OC)c2c(=O)[nH]c(-c3ccc(OCCNC(C)C)c(-c4ccc(S(C)(=O)=O)cc4C(F)(F)F)n3)nc2c1 |
| 79 to 81 °C | COc1nc(C(F)(F)C(F)(F)F)cc(=O)n1-c1cc(OC(C)C)c(Cl)cc1F |
| 166 to 167 °C | O=C(CSc1ccccc1)Nc1ccccc1C(=O)O |
| 157 to 160 °C | COc1ccc(-c2cn3ccc(C)cc3n2)cc1 |
| 200 to 201 °C | CCc1nc2c(N)nc3cc(OCCNC(=O)OC(C)(C)C)ccc3c2n1CC1CCOCC1 |
| 105 to 106 °C | CC(C)c1nn(-c2ccc(C#N)cn2)cc1CCCO |

| melting point | Compound |
| --- | --- |
| 86.2 to 87.5 °C | CC(Br)c1ncnc(Sc2ccc(Cl)cc2)c1F (stereo unspecified) |
| 165 to 166 °C | CCC(=O)N1CCC(NC(=O)Nc2cccc(Cl)c2)CC1 |
| 178 °C | COC(=O)C1CCCN1S(=O)(=O)c1ccc(Cl)c(COc2cccn3c(C(C)=O)c(C)nc23)c1Cl (stereo unspecified) |
| 35 to 36 °C | Cc1ccc(S(=O)(=O)OCCOc2ccc(OC(F)(F)F)cc2)cc1 |
| 113 to 116 °C | O=C(CC1CCC2(CC1)OCCO2)N1CCN(c2ccccn2)CC1 |
| 178 to 180 °C | CS(=O)(=O)c1ccc(-c2[nH]nc3c2-c2ccccc2CC3)cc1 |
| 165 to 166 °C | N#CC(CC(=O)O)(c1ccc(F)cc1)c1ccc(F)cc1 |
| 186 to 191 °C | CCN(CC)c1ccc(-n2c(CC(=O)O)c(C(=O)O)c3cc(Oc4cccc(Cl)c4)ccc32)cc1 |
| 160 to 162 °C | COC(=O)C(Sc1nnnn1-c1ccccc1)N1C(=O)c2ccccc2S1(=O)=O (stereo unspecified) |
| 97 to 99 °C | CSc1nc(Cl)c(Cc2ccccc2)c(N2CCCC2)n1 |
| 62 to 68 °C | COc1ccc(C(O)c2cc(O)ccc2OC)cc1 (stereo unspecified) |
| 153 to 155 °C | CCCCCCCNC(=O)Nc1ccc(N2CCOCC2)cc1C(=O)NCC1CCN(C(c2ccccc2)c2ccccc2)CC1 |
| 171 to 173 °C | O=CNCC=C(c1ccc(-c2ccccc2)cc1)c1ccc(-c2ccccc2)cc1 |
| 180 to 182 °C | CCOc1cc(Cl)ccc1C=NNC(=N)NN=Cc1ccc(Cl)cc1OCC |
| 230 °C | O=C(O)COC1(Cl)CC(c2ccccc2)=Nc2ccccc21 (stereo unspecified) |
| 168 to 170 °C | Nc1nc(NCc2ccc(OCc3ccccc3)cc2)nc2nc(-c3ccco3)nn12 |
| 216 to 218 °C | CCCOc1cc(C(=O)O)ccc1-c1ccc(-c2ccccc2)c(-c2ccc3c(c2)C(C)(C)CCC3(C)C)c1 |
| 133 to 134 °C | CC(C)(C)c1cc(CN(c2cccnc2)S(C)(=O)=O)cc(C(C)(C)C)c1O |
| 166 to 167 °C | Cc1nnc(-c2ccc3scc(-c4ccc(S(C)=O)cc4)c3c2)o1 (stereo unspecified) |
| > 250 °C | CC(C)n1nc(-c2cc(C(N)=O)c(N)nc2-c2ccccc2)ccc1=O |
